Measurements taken from the supplement of paper PMC10307832.

What was measured:
Assay in all cases: relative viability (nuclei count vs DMSO), 5 days (fraction); higher = more cells survive
A-427 = test system: A-427
Method in brief: (§1)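 Values are medians from duplicate plates. Each reflects relative viability, defined as the nuclei count of treated wells over that of vehicle wells. Lung cancer cell lines in 1536-well plates were pin-tool dosed one day after seeding with one drug alone or with a fixed anchor-drug dose plus five library-drug doses (not always all listed) in √10 steps, then fixed, stained and imaged at 4× after 5 days.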

CAL-12T = test system: CAL-12T
Method in brief: as §1

H3255 = test system: H3255
Method in brief: as §1

LCLC-97TM1 = test system: LCLC-97TM1
Method in brief: as §1

LK-2 = test system: LK-2
Method in brief: as §1

NCI-H1355 = test system: NCI-H1355
Method in brief: as §1

NCI-H1395 = test system: NCI-H1395
Method in brief: as §1

NCI-H1651 = test system: NCI-H1651
Method in brief: as §1

NCI-H1666 = test system: NCI-H1666
Method in brief: as §1

NCI-H1792 = test system: NCI-H1792
Method in brief: as §1

NCI-H1915 = test system: NCI-H1915
Method in brief: as §1

NCI-H2085 = test system: NCI-H2085
Method in brief: as §1

NCI-H2087 = test system: NCI-H2087
Method in brief: as §1

NCI-H2228 = test system: NCI-H2228
Method in brief: as §1

NCI-H322M = test system: NCI-H322M
Method in brief: as §1

NCI-H358 = test system: NCI-H358
Method in brief: as §1

NCI-H661 = test system: NCI-H661
Method in brief: as §1

NCI-H838 = test system: NCI-H838
Method in brief: as §1

PC-14 = test system: PC-14
Method in brief: as §1

PC-3 [JPC-3] = test system: PC-3 [JPC-3]
Method in brief: as §1

SK-MES-1 = test system: SK-MES-1
Method in brief: as §1

UMC-11 = test system: UMC-11
Method in brief: as §1

Which relative viability (A-427; first compound 0.08 µM) does the source give for `Cc1cnc(-c2cnc(NCCNc3ccc(C#N)cn3)nc2-c2ccc(Cl)cc2Cl)[nH]1` + Nc1nc2[nH]cc(CCc3ccc(C(=O)N[C@@H](CCC(=O)O)C(=O)O)cc3)c2c(=O)[nH]1 [Pemetrexed] (partner 0.2 µM) here?
Its relative viability is 0.981.

What about the relative viability (A-427; first compound 0.253 µM) of the same compound?
The relative viability was 0.901.

What about the relative viability (A-427; first compound 0.8 µM) of the same compound?
Its relative viability is 0.928.

What about the relative viability (A-427; first compound 2.53 µM) of the same compound?
The relative viability was 0.927.

And the relative viability (CAL-12T; first compound 0.08 µM)?
The relative viability was 1.19.

What about the relative viability (CAL-12T; first compound 0.253 µM) of the same compound?
Its relative viability is 1.04.

And the relative viability (CAL-12T; first compound 0.8 µM)?
Its relative viability is 1.17.

What about the relative viability (CAL-12T; first compound 2.53 µM) of the same compound?
Its relative viability is 0.919.

What about the relative viability (H3255; first compound 0.08 µM) of the same compound?
The relative viability was 0.555.

And the relative viability (H3255; first compound 0.253 µM)?
Its relative viability is 0.587.

What about the relative viability (H3255; first compound 0.8 µM) of the same compound?
Its relative viability is 0.533.

What about the relative viability (H3255; first compound 2.53 µM) of the same compound?
Its relative viability is 0.508.

And the relative viability (LCLC-97TM1; first compound 0.08 µM)?
The relative viability was 0.176.

What about the relative viability (LCLC-97TM1; first compound 0.253 µM) of the same compound?
Its relative viability is 0.183.

What about the relative viability (LCLC-97TM1; first compound 0.8 µM) of the same compound?
Its relative viability is 0.173.

What about the relative viability (LCLC-97TM1; first compound 2.53 µM) of the same compound?
Its relative viability is 0.188.

And the relative viability (LK-2; first compound 0.08 µM)?
The relative viability was 0.242.

And the relative viability (LK-2; first compound 0.253 µM)?
The relative viability was 0.252.

And the relative viability (LK-2; first compound 2.53 µM)?
Its relative viability is 0.253.

What about the relative viability (NCI-H1355; first compound 0.08 µM) of the same compound?
The relative viability was 1.06.

What about the relative viability (NCI-H1355; first compound 0.253 µM) of the same compound?
Its relative viability is 0.907.

What about the relative viability (NCI-H1355; first compound 0.8 µM) of the same compound?
The relative viability was 0.991.

What about the relative viability (NCI-H1355; first compound 2.53 µM) of the same compound?
The relative viability was 0.915.

And the relative viability (NCI-H1395; first compound 0.08 µM)?
Its relative viability is 0.958.

What about the relative viability (NCI-H1395; first compound 0.253 µM) of the same compound?
The relative viability was 0.823.

What about the relative viability (NCI-H1395; first compound 0.8 µM) of the same compound?
The relative viability was 0.826.

What about the relative viability (NCI-H1395; first compound 2.53 µM) of the same compound?
The relative viability was 0.756.

And the relative viability (NCI-H1651; first compound 0.08 µM)?
The relative viability was 0.574.

And the relative viability (NCI-H1651; first compound 0.253 µM)?
Its relative viability is 0.493.

And the relative viability (NCI-H1651; first compound 0.8 µM)?
Its relative viability is 0.528.

And the relative viability (NCI-H1651; first compound 2.53 µM)?
The relative viability was 0.537.

What about the relative viability (NCI-H1666; first compound 0.08 µM) of the same compound?
Its relative viability is 0.91.

And the relative viability (NCI-H1666; first compound 0.253 µM)?
Its relative viability is 0.824.

And the relative viability (NCI-H1666; first compound 0.8 µM)?
The relative viability was 0.843.

What about the relative viability (NCI-H1666; first compound 2.53 µM) of the same compound?
Its relative viability is 0.747.

What about the relative viability (NCI-H1792; first compound 0.08 µM) of the same compound?
Its relative viability is 0.946.

What about the relative viability (NCI-H1792; first compound 0.253 µM) of the same compound?
Its relative viability is 0.728.

What about the relative viability (NCI-H1792; first compound 0.8 µM) of the same compound?
The relative viability was 0.775.

What about the relative viability (NCI-H1792; first compound 2.53 µM) of the same compound?
The relative viability was 0.724.

And the relative viability (NCI-H1915; first compound 0.08 µM)?
Its relative viability is 0.49.

And the relative viability (NCI-H1915; first compound 0.8 µM)?
The relative viability was 0.438.

And the relative viability (NCI-H1915; first compound 2.53 µM)?
The relative viability was 0.398.

And the relative viability (NCI-H2085; first compound 0.08 µM)?
The relative viability was 1.01.

And the relative viability (NCI-H2085; first compound 0.253 µM)?
The relative viability was 0.852.

What about the relative viability (NCI-H2085; first compound 0.8 µM) of the same compound?
Its relative viability is 0.885.

What about the relative viability (NCI-H2085; first compound 2.53 µM) of the same compound?
Its relative viability is 0.955.

And the relative viability (NCI-H2087; first compound 0.08 µM)?
The relative viability was 0.714.

What about the relative viability (NCI-H2087; first compound 0.8 µM) of the same compound?
The relative viability was 0.641.

And the relative viability (NCI-H2087; first compound 2.53 µM)?
Its relative viability is 0.511.

What about the relative viability (NCI-H2228; first compound 0.08 µM) of the same compound?
The relative viability was 0.36.

What about the relative viability (NCI-H2228; first compound 0.8 µM) of the same compound?
The relative viability was 0.386.

What about the relative viability (NCI-H2228; first compound 2.53 µM) of the same compound?
Its relative viability is 0.288.

What about the relative viability (NCI-H322M; first compound 0.08 µM) of the same compound?
The relative viability was 0.603.

And the relative viability (NCI-H322M; first compound 0.253 µM)?
Its relative viability is 0.584.

What about the relative viability (NCI-H322M; first compound 0.8 µM) of the same compound?
Its relative viability is 0.548.

And the relative viability (NCI-H322M; first compound 2.53 µM)?
The relative viability was 0.562.

And the relative viability (NCI-H358; first compound 0.08 µM)?
Its relative viability is 0.168.

And the relative viability (NCI-H358; first compound 0.253 µM)?
The relative viability was 0.182.

And the relative viability (NCI-H358; first compound 0.8 µM)?
Its relative viability is 0.184.

And the relative viability (NCI-H358; first compound 2.53 µM)?
The relative viability was 0.16.

And the relative viability (NCI-H661; first compound 0.08 µM)?
Its relative viability is 0.876.

What about the relative viability (NCI-H661; first compound 0.253 µM) of the same compound?
The relative viability was 0.887.

What about the relative viability (NCI-H661; first compound 0.8 µM) of the same compound?
The relative viability was 0.738.

And the relative viability (NCI-H661; first compound 2.53 µM)?
Its relative viability is 0.649.

And the relative viability (NCI-H838; first compound 0.08 µM)?
Its relative viability is 0.249.

What about the relative viability (NCI-H838; first compound 0.253 µM) of the same compound?
The relative viability was 0.247.

And the relative viability (NCI-H838; first compound 0.8 µM)?
The relative viability was 0.236.

What about the relative viability (NCI-H838; first compound 2.53 µM) of the same compound?
Its relative viability is 0.243.

What about the relative viability (PC-14; first compound 0.08 µM) of the same compound?
The relative viability was 0.122.

And the relative viability (PC-14; first compound 0.253 µM)?
The relative viability was 0.127.

What about the relative viability (PC-14; first compound 0.8 µM) of the same compound?
Its relative viability is 0.129.

What about the relative viability (PC-14; first compound 2.53 µM) of the same compound?
Its relative viability is 0.152.

And the relative viability (PC-3 [JPC-3]; first compound 0.08 µM)?
The relative viability was 1.08.

And the relative viability (PC-3 [JPC-3]; first compound 0.253 µM)?
The relative viability was 1.02.

What about the relative viability (PC-3 [JPC-3]; first compound 0.8 µM) of the same compound?
The relative viability was 1.12.

And the relative viability (PC-3 [JPC-3]; first compound 2.53 µM)?
Its relative viability is 0.969.

What about the relative viability (SK-MES-1; first compound 0.08 µM) of the same compound?
The relative viability was 0.932.

What about the relative viability (SK-MES-1; first compound 0.253 µM) of the same compound?
Its relative viability is 0.895.

What about the relative viability (SK-MES-1; first compound 0.8 µM) of the same compound?
The relative viability was 0.977.

What about the relative viability (SK-MES-1; first compound 2.53 µM) of the same compound?
The relative viability was 0.99.

And the relative viability (UMC-11; first compound 0.08 µM)?
The relative viability was 0.867.

What about the relative viability (UMC-11; first compound 0.253 µM) of the same compound?
Its relative viability is 0.772.

And the relative viability (UMC-11; first compound 0.8 µM)?
The relative viability was 0.822.

What about the relative viability (UMC-11; first compound 2.53 µM) of the same compound?
The relative viability was 0.735.
